Calls of active or inactive are those of the source.
Key:
[1] = molecular target: Delta-type opioid receptor (Homo sapiens, UniProt P41143); assay: Counterscreen for agonists of heterodimerization of the mu 1 (OPRM1) and delta 1 (OPRD1) opioid receptors: Luminescence-based cell-based high throughput dose response assay to identify agonists of OPRD1 homodimerization. [Related pubchem assays (depositor defined):AID504326, AID504355, AID504692, AID504904, AID504905]; format: functional
[2] = molecular target: 5-hydroxytryptamine receptor 5A (Homo sapiens, UniProt P47898); assay: Counterscreen for agonists of OPRM1-OPRD1 heterodimerization: luminescence-based cell-based high throughput dose response assay to identify agonists of 5-hydroxytryptamine (serotonin) 5A receptor (HTR5A). [Related pubchem assays (depositor defined):AID504326, AID504355, AID504692, AID504904, AID504905]; format: functional
Mu-type opioid receptor = Mu-type opioid receptor (Homo sapiens, UniProt P35372); assay: Counterscreen for agonists of heterodimerization of the mu 1 (OPRM1) and delta 1 (OPRD1) opioid receptors: Luminescence-based cell-based high throughput dose response assay to identify agonists of OPRM1 homodimerization.; format: functional;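 note: U2OS cells expressing OPRM1 and beta-arrestin as split beta-galactosidase partners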
[3] = molecular target: T1, Short transient receptor potential channel 4 (Mus musculus, UniProt Q9QUQ5); assay: mouse TRPC4 channel activators, dose response, cell-based, HEK293 TRPC4/mu-opioid, Fluo-4 calcium (AID 434937); format: functional
T1 sequence (Q9QUQ5 whole entry): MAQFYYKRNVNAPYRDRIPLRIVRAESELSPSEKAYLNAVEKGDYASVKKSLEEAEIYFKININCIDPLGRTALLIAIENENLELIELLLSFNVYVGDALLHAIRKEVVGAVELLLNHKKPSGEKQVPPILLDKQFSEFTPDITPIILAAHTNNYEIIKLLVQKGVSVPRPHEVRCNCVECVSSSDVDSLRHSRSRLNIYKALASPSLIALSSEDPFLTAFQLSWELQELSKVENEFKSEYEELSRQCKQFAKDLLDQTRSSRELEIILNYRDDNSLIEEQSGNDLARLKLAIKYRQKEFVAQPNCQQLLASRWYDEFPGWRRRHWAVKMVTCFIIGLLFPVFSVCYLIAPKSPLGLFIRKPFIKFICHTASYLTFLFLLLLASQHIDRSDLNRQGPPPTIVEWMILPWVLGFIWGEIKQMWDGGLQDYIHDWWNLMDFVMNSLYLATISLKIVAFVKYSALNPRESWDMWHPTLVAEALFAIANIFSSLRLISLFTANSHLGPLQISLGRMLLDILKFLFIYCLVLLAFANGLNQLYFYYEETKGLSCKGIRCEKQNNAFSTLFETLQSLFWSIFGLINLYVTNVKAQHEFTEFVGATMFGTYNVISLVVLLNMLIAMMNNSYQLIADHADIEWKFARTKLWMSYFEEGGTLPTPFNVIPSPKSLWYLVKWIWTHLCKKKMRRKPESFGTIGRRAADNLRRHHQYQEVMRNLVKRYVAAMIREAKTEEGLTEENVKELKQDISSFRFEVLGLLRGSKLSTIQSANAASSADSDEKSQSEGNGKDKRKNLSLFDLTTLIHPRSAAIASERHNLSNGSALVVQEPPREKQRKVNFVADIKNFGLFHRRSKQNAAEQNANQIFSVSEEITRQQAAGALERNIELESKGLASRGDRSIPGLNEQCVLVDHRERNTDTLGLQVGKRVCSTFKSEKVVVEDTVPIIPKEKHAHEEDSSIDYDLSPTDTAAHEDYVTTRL

Vero [4] = assay: host cell cytotoxicity of antiviral hits, dose response, cytotoxicity control for West Nile virus antiviral project, secondary assay (AID 1650); format: functional; details: Chlorocebus sabaeus
[5] = HEp-2 cell cytotoxicity, dose response, cytotoxicity control for RSV inhibitor project, HTS (AID 2410); format: functional; details: human respiratory syncytial virus
Vero [6] = assay: cells; format: functional; details: Chlorocebus sabaeus
Vero [7] = assay: cells; format: functional, cell-based; details: Chlorocebus sabaeus
Escherichia coli [8] = assay: microbe, parasite or virus in culture
[9] = cytotoxicity toward NIH3T3 fibroblasts, dose response, counter-screen, cell-based, ATP luminescence, mouse fibroblasts (AID 2010); format: functional;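 note: cells exposed to compound for about 90 hours before reading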
cells = format: functional
[10] = inhibitors of intracellular T. cruzi replication, confirmation, NIH3T3 host cells, beta-gal luminescence (AID 2044); format: functional, cell-based;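 note: intracellular parasites grown in NIH/3T3 mouse fibroblasts as host cells; luminescent beta-galactosidase reporter signal from transgenic T. cruzi replicating inside host cells; inhibitors lower the luminescence signal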
[11] = molecular target: Nuclear receptor subfamily 0 group B member 1 (Homo sapiens, UniProt P51843); assay: Luminescence-based cell-based high throughput dose response assay for inhibitors of the orphan nuclear receptor subfamily 0, group B, member 1 (DAX1; NR0B1). [Related pubchem assays (depositor defined):AID504766, AID504790]; format: functional
H4 = assay: Luminescence Cell-Based Dose Response HTS to Identify Activators of 5'UTR Stem-Loop Driven Prion Protein mRNA Translation in H4 Neuroglioblastoma Cells. [Related pubchem assays: 1829 (Project Summary), 1814 (Primary HTS)]; format: functional; details: Homo sapiens
HEK293 [12] = assay: cells; format: functional, cell-based; details: Homo sapiens
[13] = Luminescence Cell-Based Dose Confirmation to Identify Activators of 5'UTR Stem-Loop Driven Alpha-Synuclein mRNA Translation in H4 Neuroglioblastoma Cells. [Related pubchem assays: 1829 (Project Summary), 1814 (Primary HTS)]; format: functional
[14] = Luminescence Cell-Based Dose Response to Identify Activators of 5'UTR Stem-Loop Driven Prion Protein mRNA Translation in H4-C Neuroglioblastoma Cells. [Related pubchem assays: 1829 (Project Summary), 1814 (Primary HTS)]; format: functional
[15] = Luminescence Cell-Based Dose Response to Identify Activators of Luciferase Translation or Activity in H4-C Neuroglioblastoma Cells. [Related pubchem assays: 1829 (Project Summary), 1814 (Primary HTS)]; format: functional
Escherichia coli [16] = assay: microbe, parasite or virus in culture; remark: listed apart in the source
Streptococcus = assay: Group A Streptococcus viability loss, dose response, counter-screen for streptokinase expression inhibitor project, luminescence, BacTiterGlo (AID 1915); format: functional, organism-based;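 note: potency for reduction of bacterial viability or growth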
[17] = molecular target: T2, Zinc finger protein mex-5 (Caenorhabditis elegans, UniProt Q9XUB2); assay: MEX-5/TCR-2 RNA interaction inhibitors, dose response, biochemical, C. elegans, fluorescence polarization (AID 1960)
T2 sequence (Q9XUB2 whole entry): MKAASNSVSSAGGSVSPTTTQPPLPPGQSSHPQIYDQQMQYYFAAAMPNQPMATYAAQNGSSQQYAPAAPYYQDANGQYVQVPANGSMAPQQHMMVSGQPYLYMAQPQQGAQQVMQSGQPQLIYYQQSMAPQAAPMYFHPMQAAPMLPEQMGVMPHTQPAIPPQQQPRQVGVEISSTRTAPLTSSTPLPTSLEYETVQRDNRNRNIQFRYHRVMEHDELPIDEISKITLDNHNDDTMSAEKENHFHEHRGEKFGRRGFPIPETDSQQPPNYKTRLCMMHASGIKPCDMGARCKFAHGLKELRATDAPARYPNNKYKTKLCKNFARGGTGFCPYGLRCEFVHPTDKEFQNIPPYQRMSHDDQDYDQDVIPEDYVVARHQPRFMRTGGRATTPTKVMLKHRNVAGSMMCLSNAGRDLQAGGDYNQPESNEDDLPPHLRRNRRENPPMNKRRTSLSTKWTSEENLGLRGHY

[18] = tested on: Streptococcus sp. 'group A'; assay: growth inhibition of control SK(-) GAS strain, dose response, counter-screen for streptokinase expression inhibitor project, luminescence, kanamycin, BacTiterGlo, confirmation (AID 1900); format: functional, organism-based
HEK293 [19] = assay: cells; details: Homo sapiens
Fatty acid synthase [20] = molecular target: T3, Fatty acid synthase (Homo sapiens, UniProt P49327); assay: FAS thioesterase domain inhibitors, dose response, biochemical, kinetic fluorescence intensity (AID 624326); format: functional;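 note: rate of fluorescence rise from hydrolysis of a fluorogenic O-methyl fluorescein ester substrate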
HEK293 [21] = assay: cells; details: Homo sapiens; remark: listed apart in the source
Fatty acid synthase [22] = molecular target: T3, Fatty acid synthase; assay: FAS thioesterase domain inhibitors, dose response, biochemical, endpoint fluorescence intensity, uHTS hits (AID 624327); format: functional;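 note: fluorescence from hydrolysis of an O-methyl fluorescein acyl ester substrate by the enzyme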
[23] = molecular target: T4, Replicative DNA helicase DnaB (Mycobacterium tuberculosis, UniProt P9WMR3); assay: DnaB intein splicing inhibitors, dose response, biochemical, cell-free fluorescence (AID 449749); format: functional
T4 sequence (P9WMR3 whole entry): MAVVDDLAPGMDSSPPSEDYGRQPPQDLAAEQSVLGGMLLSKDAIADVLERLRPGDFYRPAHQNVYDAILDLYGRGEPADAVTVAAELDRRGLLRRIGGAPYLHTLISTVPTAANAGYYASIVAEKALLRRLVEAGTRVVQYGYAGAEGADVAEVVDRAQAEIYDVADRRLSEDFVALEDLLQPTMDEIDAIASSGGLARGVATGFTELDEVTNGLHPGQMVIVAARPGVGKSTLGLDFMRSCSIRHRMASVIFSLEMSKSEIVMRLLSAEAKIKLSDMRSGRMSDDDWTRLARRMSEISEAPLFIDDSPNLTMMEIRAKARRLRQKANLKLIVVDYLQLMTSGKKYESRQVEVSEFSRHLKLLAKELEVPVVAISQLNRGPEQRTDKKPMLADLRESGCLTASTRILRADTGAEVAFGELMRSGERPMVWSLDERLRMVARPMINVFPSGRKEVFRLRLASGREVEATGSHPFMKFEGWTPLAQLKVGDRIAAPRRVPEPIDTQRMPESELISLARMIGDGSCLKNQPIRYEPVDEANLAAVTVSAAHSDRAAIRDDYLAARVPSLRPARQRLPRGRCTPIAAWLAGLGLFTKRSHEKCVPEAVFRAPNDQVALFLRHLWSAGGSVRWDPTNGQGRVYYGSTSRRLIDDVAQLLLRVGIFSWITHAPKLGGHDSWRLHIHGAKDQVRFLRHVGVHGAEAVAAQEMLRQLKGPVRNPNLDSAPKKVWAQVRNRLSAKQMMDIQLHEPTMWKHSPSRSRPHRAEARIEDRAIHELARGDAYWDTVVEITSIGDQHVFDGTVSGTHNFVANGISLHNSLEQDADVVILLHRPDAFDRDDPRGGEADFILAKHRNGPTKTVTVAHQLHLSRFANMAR

Protein RecA = molecular target: T5, Protein RecA (Mycobacterium tuberculosis, UniProt P9WHJ3); assay: Fluorescence Cell-Free Homogeneous Dose Retest to Identify Inhibitors of RecA-Intein Splicing Activity. [Related pubchem assays (depositor defined):AID2097, AID2223, AID489010, AID492950]; format: functional
T5 sequence (P9WHJ3 whole entry): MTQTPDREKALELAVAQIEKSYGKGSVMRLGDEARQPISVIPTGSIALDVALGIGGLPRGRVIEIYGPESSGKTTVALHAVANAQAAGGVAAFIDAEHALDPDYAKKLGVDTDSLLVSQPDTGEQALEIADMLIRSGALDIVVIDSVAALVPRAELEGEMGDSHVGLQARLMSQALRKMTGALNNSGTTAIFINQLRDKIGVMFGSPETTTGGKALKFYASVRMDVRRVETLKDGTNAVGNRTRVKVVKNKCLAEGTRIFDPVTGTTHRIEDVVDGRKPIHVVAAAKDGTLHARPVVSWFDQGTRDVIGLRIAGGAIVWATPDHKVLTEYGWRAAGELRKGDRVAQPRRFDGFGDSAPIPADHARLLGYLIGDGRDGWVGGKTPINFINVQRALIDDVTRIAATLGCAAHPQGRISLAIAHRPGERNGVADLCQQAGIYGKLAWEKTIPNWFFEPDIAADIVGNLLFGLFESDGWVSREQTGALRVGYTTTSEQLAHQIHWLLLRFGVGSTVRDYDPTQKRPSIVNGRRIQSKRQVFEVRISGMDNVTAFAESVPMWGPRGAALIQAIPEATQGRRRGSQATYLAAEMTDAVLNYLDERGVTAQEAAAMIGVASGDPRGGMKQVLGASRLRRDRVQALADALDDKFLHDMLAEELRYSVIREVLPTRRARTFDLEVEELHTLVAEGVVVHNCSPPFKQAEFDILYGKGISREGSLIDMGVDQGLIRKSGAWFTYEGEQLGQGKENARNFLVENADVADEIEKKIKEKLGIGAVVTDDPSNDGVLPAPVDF

Chain of Mu-type opioid receptor (P35372 whole entry): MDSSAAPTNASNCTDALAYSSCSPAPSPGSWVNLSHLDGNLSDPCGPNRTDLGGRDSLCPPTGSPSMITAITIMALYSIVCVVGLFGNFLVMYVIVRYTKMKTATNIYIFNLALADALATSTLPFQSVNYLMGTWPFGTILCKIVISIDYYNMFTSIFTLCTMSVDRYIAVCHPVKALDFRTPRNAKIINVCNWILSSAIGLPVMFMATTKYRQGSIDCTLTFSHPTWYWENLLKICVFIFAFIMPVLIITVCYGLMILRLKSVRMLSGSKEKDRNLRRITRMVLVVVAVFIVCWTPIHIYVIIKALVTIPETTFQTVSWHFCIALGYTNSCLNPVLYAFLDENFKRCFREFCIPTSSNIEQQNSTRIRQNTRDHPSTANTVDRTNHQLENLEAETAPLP
Chain of 5-hydroxytryptamine receptor 5A (P47898 whole entry): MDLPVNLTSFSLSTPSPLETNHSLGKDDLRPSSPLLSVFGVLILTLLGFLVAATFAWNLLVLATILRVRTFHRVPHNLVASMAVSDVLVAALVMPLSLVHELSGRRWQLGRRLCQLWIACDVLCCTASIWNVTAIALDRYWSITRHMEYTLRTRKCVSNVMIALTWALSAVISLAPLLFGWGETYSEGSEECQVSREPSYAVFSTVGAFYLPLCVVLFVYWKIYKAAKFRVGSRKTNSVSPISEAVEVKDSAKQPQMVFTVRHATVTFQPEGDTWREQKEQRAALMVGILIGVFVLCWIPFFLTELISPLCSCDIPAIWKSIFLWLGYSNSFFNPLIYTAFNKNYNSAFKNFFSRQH
Chain of Delta-type opioid receptor (P41143 whole entry): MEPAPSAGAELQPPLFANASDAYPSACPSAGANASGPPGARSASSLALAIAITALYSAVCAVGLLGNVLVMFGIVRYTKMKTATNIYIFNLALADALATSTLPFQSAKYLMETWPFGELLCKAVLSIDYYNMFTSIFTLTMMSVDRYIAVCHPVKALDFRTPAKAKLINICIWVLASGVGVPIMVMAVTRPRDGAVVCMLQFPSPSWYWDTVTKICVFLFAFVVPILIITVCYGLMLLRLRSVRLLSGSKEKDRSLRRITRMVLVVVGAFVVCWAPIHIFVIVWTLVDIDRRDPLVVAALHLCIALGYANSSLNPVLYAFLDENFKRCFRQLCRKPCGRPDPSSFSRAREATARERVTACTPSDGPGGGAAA
Chain of Nuclear receptor subfamily 0 group B member 1 (P51843 whole entry): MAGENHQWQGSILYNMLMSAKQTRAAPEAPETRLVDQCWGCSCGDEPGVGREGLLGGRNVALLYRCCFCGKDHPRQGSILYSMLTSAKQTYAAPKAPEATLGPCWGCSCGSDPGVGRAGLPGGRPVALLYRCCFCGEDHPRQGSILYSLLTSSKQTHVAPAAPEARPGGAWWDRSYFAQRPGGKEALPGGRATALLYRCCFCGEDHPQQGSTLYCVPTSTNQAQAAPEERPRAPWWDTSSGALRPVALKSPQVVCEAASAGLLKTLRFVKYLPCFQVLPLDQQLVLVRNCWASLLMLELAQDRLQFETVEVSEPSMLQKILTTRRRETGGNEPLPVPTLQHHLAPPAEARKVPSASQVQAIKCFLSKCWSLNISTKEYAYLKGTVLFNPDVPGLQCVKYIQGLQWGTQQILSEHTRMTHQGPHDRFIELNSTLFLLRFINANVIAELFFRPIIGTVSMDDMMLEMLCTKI
T3 sequence (P49327 whole entry, the tested form may be a part): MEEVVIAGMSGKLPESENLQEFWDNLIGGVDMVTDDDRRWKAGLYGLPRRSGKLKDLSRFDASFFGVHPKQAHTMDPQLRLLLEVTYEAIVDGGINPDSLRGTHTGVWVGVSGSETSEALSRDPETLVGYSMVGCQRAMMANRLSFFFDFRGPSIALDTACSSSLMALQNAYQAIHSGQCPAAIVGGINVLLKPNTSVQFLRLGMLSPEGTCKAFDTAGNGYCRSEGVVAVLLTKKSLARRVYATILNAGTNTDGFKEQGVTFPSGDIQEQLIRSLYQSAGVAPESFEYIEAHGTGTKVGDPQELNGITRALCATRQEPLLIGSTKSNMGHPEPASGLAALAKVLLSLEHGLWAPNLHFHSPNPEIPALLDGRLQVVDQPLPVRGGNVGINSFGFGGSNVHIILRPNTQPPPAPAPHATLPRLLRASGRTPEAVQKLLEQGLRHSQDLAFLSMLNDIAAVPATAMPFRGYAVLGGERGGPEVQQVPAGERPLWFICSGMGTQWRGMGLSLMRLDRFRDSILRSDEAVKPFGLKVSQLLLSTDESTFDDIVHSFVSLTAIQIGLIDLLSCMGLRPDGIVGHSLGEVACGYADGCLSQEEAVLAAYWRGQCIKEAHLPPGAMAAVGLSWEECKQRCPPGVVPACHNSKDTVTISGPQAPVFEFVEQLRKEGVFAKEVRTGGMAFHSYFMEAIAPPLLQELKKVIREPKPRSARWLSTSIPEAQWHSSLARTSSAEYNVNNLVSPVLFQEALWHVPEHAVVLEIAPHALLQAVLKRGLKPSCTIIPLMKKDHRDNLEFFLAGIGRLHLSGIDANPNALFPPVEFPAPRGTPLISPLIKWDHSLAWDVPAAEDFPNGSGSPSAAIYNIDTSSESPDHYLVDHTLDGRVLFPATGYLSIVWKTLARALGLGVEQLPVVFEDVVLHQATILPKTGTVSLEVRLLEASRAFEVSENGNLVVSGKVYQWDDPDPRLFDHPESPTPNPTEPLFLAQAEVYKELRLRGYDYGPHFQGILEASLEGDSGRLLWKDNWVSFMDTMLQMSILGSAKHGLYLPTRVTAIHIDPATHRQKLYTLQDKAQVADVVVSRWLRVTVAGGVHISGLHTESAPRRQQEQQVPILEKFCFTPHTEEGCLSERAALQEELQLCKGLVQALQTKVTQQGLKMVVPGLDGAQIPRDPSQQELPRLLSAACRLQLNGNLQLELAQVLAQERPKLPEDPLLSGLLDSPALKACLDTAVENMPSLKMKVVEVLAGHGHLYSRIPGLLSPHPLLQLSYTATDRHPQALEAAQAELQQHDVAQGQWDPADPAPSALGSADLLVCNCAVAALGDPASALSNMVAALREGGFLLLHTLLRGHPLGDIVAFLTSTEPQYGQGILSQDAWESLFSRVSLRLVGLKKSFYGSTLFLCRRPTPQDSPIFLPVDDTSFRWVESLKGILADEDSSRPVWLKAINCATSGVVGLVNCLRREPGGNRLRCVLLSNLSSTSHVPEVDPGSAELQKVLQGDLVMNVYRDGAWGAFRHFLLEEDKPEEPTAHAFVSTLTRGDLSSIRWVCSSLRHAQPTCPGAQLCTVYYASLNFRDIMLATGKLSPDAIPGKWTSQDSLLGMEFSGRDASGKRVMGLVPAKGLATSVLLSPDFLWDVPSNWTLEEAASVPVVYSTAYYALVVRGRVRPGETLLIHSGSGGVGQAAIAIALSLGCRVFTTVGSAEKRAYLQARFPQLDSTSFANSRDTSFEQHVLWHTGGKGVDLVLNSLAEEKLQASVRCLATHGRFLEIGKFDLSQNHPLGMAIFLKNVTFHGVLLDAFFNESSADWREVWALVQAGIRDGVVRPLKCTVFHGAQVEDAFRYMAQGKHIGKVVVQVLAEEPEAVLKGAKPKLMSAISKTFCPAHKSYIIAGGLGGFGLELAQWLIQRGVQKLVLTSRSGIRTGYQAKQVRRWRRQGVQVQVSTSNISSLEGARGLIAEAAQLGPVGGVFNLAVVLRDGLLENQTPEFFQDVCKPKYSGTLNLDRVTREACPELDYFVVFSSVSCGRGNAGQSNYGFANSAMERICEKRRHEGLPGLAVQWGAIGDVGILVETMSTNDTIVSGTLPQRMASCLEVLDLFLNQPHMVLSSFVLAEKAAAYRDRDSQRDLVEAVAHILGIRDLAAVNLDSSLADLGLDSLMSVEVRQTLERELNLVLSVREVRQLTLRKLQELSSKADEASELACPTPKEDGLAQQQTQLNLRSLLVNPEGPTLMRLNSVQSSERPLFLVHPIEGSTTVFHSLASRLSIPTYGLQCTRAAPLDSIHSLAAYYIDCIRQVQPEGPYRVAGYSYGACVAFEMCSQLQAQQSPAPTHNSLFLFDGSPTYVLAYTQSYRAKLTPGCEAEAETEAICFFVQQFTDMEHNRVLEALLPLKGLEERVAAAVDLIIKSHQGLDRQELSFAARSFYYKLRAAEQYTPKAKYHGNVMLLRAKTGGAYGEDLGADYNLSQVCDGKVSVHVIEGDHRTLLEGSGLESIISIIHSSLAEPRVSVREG

COc1ccc(-c2csc(N(CCCN(C)C)C(=O)c3cccs3)n2)cc1
EC50 [1]: > 92.5 µM (inactive) | EC50 [2]: > 92.5 µM (inactive) | EC50 (Mu-type opioid receptor): > 92.5 µM (inactive)

CCOC(=O)C1(CC2CCCCO2)CCN(Cc2c(C)cc(C)cc2-n2cccn2)CC1 (stereo unspecified)
EC50 [3]: 0.0293 µM (active) | EC50 [1]: > 92.5 µM (inactive) | EC50 [2]: > 92.5 µM (inactive) | EC50 (Mu-type opioid receptor): 15.5 µM (inactive)

CC1(C)COC(/C=C/c2cccc([N+](=O)[O-])c2)=N1
CC50 (Vero [4]): 12.6 µM (active) | CC50 [5]: 9.78 µM (active) | CC50 (Vero [6]): 15.1 µM (active) | IC50 (Vero [7]): 21.5 µM (active)

COc1ccc(C(=O)C2(C)N(O)C(C)C(c3cccs3)=[N+]2[O-])cc1 (stereo unspecified)
AC50 (Escherichia coli [8]): > 380 µM (inactive)

O=C1c2cccc3cc([N+](=O)[O-])cc(c23)C(=O)N1c1ccccc1O
EC50 [9]: 9.05 µM (active) | IC50 (cells): > 50 µM (active) | IC50 (Vero [7]): 2.35 µM (active) | EC50 [10]: 0.354 µM (active)

Cc1ccccc1Nc1nc(N)nc(CSc2ccc(F)cc2)n1
IC50 [11]: > 67.5 µM (inactive) | EC50 (H4): < 0.1 µM (active) | IC50 (HEK293 [12]): > 67.5 µM (inactive) | EC50 [13]: 0.229 µM (active) | EC50 [14]: 0.343 µM (active) | EC50 [15]: 0.351 µM (active)

C[C@H]1c2cccc(O)c2C(=O)C2=C(O)[C@]3(O)C(O)=C(C(N)=O)C(=O)[C@@H](N(C)C)C3[C@@H](O)C21 (stereo partly specified)
AC50 (Escherichia coli [16]): 39.8 µM (active) | EC50 (Streptococcus): 0.109 µM (active) | EC50 [17]: 45.3 µM (active) | AC50 (Escherichia coli [8]): 2.34 µM (active) | EC50 [18]: < 0.06 µM (active)

CCCCOCC1CN(c2ccccc2)C(=O)CS1 (stereo unspecified)
AC50 (Escherichia coli [16]): 20.9 µM (active)

CCc1cccc(CC)c1NC(=O)/C(C#N)=C/c1ccccc1C(F)(F)F
EC50 (HEK293 [19]): > 59.6 µM (inactive) | IC50 (Fatty acid synthase [20]): 4.74 µM (active) | EC50 (HEK293 [21]): > 59.6 µM (inactive) | IC50 (Fatty acid synthase [22]): 7.72 µM (active) | AC50 [23]: 4.45 µM (active) | EC50 (Protein RecA): 11.7 µM (active)

CC(=O)Nc1ccc(S(=O)(=O)N[C@@H](C)C(=O)OCC(=O)c2ccc(Br)s2)cc1
IC50 [11]: > 67.5 µM (inactive) | IC50 (HEK293 [12]): > 67.5 µM (inactive)
